Here are results for five compounds from patent US9057727B2, “Screening methods using G-protein coupled receptors and related compositions” (The General Hospital Corporation, priority 2007, dated 2015).

One assay concerns the target T1, human PTH1 receptor (Homo sapiens, UniProt Q03431).
T1 construct: expressed in transfected cells
T1 sequence (Q03431 27-593): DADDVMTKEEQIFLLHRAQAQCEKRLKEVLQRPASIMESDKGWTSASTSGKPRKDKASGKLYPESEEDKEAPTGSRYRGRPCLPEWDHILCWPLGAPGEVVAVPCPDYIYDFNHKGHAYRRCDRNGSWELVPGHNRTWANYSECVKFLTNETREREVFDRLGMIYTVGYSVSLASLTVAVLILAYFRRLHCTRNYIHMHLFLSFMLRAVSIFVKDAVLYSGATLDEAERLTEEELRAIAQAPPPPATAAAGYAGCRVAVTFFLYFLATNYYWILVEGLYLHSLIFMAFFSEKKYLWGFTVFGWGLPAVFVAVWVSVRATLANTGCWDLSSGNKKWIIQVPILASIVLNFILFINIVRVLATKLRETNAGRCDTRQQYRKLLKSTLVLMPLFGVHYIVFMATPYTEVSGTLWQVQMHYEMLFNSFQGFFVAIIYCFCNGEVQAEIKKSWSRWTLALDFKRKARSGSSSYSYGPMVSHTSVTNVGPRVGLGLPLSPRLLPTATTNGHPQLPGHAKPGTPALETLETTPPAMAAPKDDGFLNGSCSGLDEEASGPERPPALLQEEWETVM
The assay is described as follows: cAMP signaling dose-response in HKRK-B7 cells. The conditions noted are these: 15 min, 37° C., IBMX. Type of assay: cell-based. Here is the method:
In the cAMP experiments of FIG. 14, HKRK-B7 were seeded in 96 well plates at 1×10^5 cells/well and incubated overnight. On the following day, the cells were washed once with […] of binding buffer (50 mM Tris-HCl, pH 7.7, 100 mM NaCl, 5 mM KCl, 2 mM CaCl2, 5% heat-inactivated horse serum, 0.5% heat-inactivated fetal bovine serum), followed by addition of 100 μl cAMP assay buffer (DMEM, 2 mM IBMX, 1 mg/ml bovine serum albumin, 35 mM Hepes-NaOH, pH 7.4) on ice. […] After removing the medium, the plates were placed on powdered dry ice to freeze the cells and then removed from dry ice. The cells were thawed with 50 μl of 50 mM HCl and frozen again on dry ice. The level of intracellular cAMP was measured with a commercially available cAMP EIA kit (Biotrack cAMP EIA system, GE Healthcare).
HKRK-B, which are LLC-PK1 cells over-expressing human PTH1 receptor at levels of 9.5×10^5 per cell were used in the cAMP signaling assay. The cells were cultured at 37° C. in a humidified atmosphere containing 5% CO2 in Dulbecco's modified Eagle's medium (DMEM), supplemented with 10% fetal bovine serum (Hyclone), 100 units/ml penicillin G, and 100 μg/ml streptomycin sulfate (Invitrogen Corp). […] All peptides were dissolved at 1 mM in 10 mM acetic acid, and stored at −80° C. The cAMP stimulation assay was performed as described above for HKRK-B7 cells. […] Cells were treated for 15 minutes at 37° C. with varying concentrations of ligands in the presence of IBMX.

The target in a further assay is T2, human PTH receptor (Homo sapiens, UniProt Q03431).
T2 construct: expressed in transfected cells
Kind of assay: cAMP in HRKRK-B7 cells EC50 (nM). From the text: Table printed on a drawing sheet, Figure 25
Head of the field: cAMP in HRKRK-B7 cells EC50 (nM)
First copying reader's note: The column head prints the cell line as HRKRK-B7 while the title prints HKRK-B7.

Assay [1] has as its target T3, hPTH1R (R0 form of the human PTH receptor) (Homo sapiens, UniProt Q03431).
T3 construct: expressed in transfected cells; host or cells: COS-7, transient (Fugene-6)
The assay is described as follows: R0 memb: hPTH1R*PTH( 1-34)+GTPgS.

The nature of assay [2]: Calcemic action in normal rats (blood ionized calcium). The note with it: normal and TPTX rats. Type of assay: in vivo. Here is the method:
Binding to the rat PTHR was also measured in vitro.
Concentration of peptides in stock solution were adjusted by dilution with 25 mmol/L phosphate-citrate buffer/100 mmol/L NaCl/0.05% Tween 80 (pH. 5.0) (PC-buffer). All peptides were allowed to stand on ice immediately before administration.
Female SD-IGS rat at 8 weeks of age (Charles River Japan, Inc.) were measured for their body weight. Blood was collected by tail vein into heparinized capillary tubes and measured for baseline levels of blood ionized calcium and pH using Ca^++/pH analyzer (Model 634/Bayer Medical Ltd.) to give the corrected level of ionized calcium at pH 7.4 for each sample. Rats received intravenous administration of each peptides at a dose of 1 ml/kg. Peptides were administered to groups of 6 rats each respectively. At 1, 2, 4, or 6 hours after administration, blood was collected by tail vein to monitor the time course of corrected blood ionized calcium levels. The time course of changes in corrected ionized calcium levels, compared to vehicle, and are expressed as means+/−standard error.

The target in assay [3] is hPTH1R (RG form of the human PTH receptor). The assay is described as follows: RG memb: hPTH1R+dnGS *M-PTH(1-15).
Assay [4] deals with T4, human PTHR, G protein-uncoupled conformation (R^0) (Homo sapiens, UniProt Q03431).
T4 construct: expressed in transfected cells; host or cells: COS-7, transient (Fugene-6)
T4 sequence (Q03431 27-593): T1 sequence (Q03431 27-593)
The assay is described as follows: Competition binding to R0 conformation of hPTHR (COS-7 membranes, GTPγS, 125I-PTH(1-34) tracer). The note with it: human PTH receptor on COS-7 cell membranes. In outline:
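Membranes from hPTHR-transfected COS-7 cells (20-100 μg/mL protein) incubated 90 min with radioligand (~150,000 cpm/ml) and unlabeled ligands, then filtered. Specific binding expressed as % of binding without competitor.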

Peptide text beside a SMILES is read from it.

In the case of `CC[C@H](C)[C@H](NC(=O)[C@H](CCC(=O)O)NC(=O)[C@H](C)NC(=O)[C@@H](NC(=O)[C@H](C)N)C(C)C)C(=O)N[C@@H](CCC(N)=O)C(=O)N[C@@H](CC(C)C)C(=O)N[C@@H](CCSC)C(=O)N[C@@H](Cc1c[nH]cn1)C(=O)N[C@@H](CCC(N)=O)C(=O)N[C@@H](CCCNC(=N)N)C(=O)N[C@@H](C)C(=O)N[C@@H](CCCCN)C(=O)N[C@@H](Cc1c[nH]c2ccccc12)C(=O)N[C@@H](CC(C)C)C(=O)N[C@@H](CC(N)=O)C(=O)N[C@@H](CO)C(=O)N[C@@H](CCSC)C(=O)N[C@@H](CCCNC(=N)N)C(=O)N[C@@H](CCCNC(=N)N)C(=O)N[C@H](C(=O)N[C@@H](CCC(=O)O)C(=O)N[C@@H](Cc1c[nH]c2ccccc12)C(=O)N[C@@H](CC(C)C)C(=O)N[C@@H](CCCNC(=N)N)C(=O)N[C@@H](CCCCN)C(=O)N[C@@H](CCCCN)C(=O)N[C@@H](CC(C)C)C(=O)N[C@@H](CCC(N)=O)C(=O)N[C@@H](CC(=O)O)C(=O)N[C@H](C(=O)N[C@@H](Cc1c[nH]cn1)C(=O)N[C@@H](CC(N)=O)C(=O)N[C@@H](Cc1ccccc1)C(=O)O)C(C)C)C(C)C` [Mc-PTH34(R19), Mc-hPTH(1-34)OH] (H-AVAEIQLMHQRAKWLNSMRRVEWLRKKLQDVHNF-OH; N-terminus assumed), the “cAMP in HKRK-B7 cells Max” value at human PTH1 receptor was determined as 65.5 pm/well.
For orientation: EC50 means the concentration needed to bring the measured effect to its halfway point. Low values mean higher potency in that assay, high ones lower potency in that assay. The IC50 is the concentration that inhibits the measured activity by half. Turning to `CC[C@H](C)[C@H](NC(=O)[C@H](CCC(=O)O)NC(=O)[C@H](C)NC(=O)[C@@H](NC(=O)[C@H](Cc1c[nH]cn1)NC(=O)[C@@H](NC(=O)[C@H](CCC(=O)O)NC(=O)[C@H](C)NC(=O)[C@@H](NC(=O)[C@H](CC(C)C)NC(=O)[C@H](Cc1c[nH]cn1)NC(=O)[C@H](Cc1c[nH]cn1)NC(=O)[C@H](CC(C)C)NC(=O)[C@H](Cc1ccccc1)NC(=O)[C@H](CCC(=O)O)NC(=O)[C@@H](NC(=O)[C@H](CCCNC(=N)N)NC(=O)[C@H](CCC(=O)O)NC(=O)[C@H](CCSC)NC(=O)[C@H](CO)NC(=O)[C@H](CC(N)=O)NC(=O)[C@H](CC(C)C)NC(=O)[C@H](Cc1c[nH]cn1)NC(=O)[C@H](CCCCN)NC(=O)CNC(=O)[C@H](CC(C)C)NC(=O)[C@H](CC(N)=O)NC(=O)[C@H](Cc1c[nH]cn1)NC(=O)[C@H](CCSC)NC(=O)[C@H](CC(C)C)NC(=O)[C@H](CCC(N)=O)NC(=O)[C@@H](NC(=O)[C@H](CCC(=O)O)NC(=O)[C@H](CO)NC(=O)[C@@H](NC(=O)[C@@H](N)CO)C(C)C)[C@@H](C)CC)C(C)C)[C@@H](C)CC)[C@@H](C)CC)[C@@H](C)O)C(=O)O` [PTH(1-22)/PTHrP(23-36)] (H-SVSEIQLMHNLGKHLNSMERVEFLHHLIAEIHTAEI-OH), on human PTH receptor, the response was half-maximal at 0.89 nM (EC50). The results for the IC50 in assay [1] and in assay [3] were 16.8 nM and 0.22 nM, respectively. Besides, the “calcemic action compared with control peptides, in words” value in assay [2] is given as “weaker calcemic actions than did either PTH(1-34) or PTHrP(1-36) control peptides”.
On the same counts, the results for `CC[C@H](C)[C@H](NC(=O)[C@H](CCC(=O)O)NC(=O)[C@H](C)NC(=O)[C@@H](NC(=O)[C@H](Cc1c[nH]cn1)NC(=O)[C@@H](NC(=O)[C@H](CCC(=O)O)NC(=O)[C@H](C)NC(=O)[C@@H](NC(=O)[C@H](CC(C)C)NC(=O)[C@H](CCCCN)NC(=O)[C@H](CCCNC(=N)N)NC(=O)[C@H](CC(C)C)NC(=O)[C@H](Cc1c[nH]c2ccccc12)NC(=O)[C@H](CCC(=O)O)NC(=O)[C@@H](NC(=O)[C@H](CCCNC(=N)N)NC(=O)[C@H](CCC(=O)O)NC(=O)[C@H](CCSC)NC(=O)[C@H](CO)NC(=O)[C@H](CC(N)=O)NC(=O)[C@H](CC(C)C)NC(=O)[C@H](Cc1c[nH]cn1)NC(=O)[C@H](CCCCN)NC(=O)CNC(=O)[C@H](CC(C)C)NC(=O)[C@H](CC(N)=O)NC(=O)[C@H](Cc1c[nH]cn1)NC(=O)[C@H](CCSC)NC(=O)[C@H](CC(C)C)NC(=O)[C@H](CCC(N)=O)NC(=O)[C@@H](NC(=O)[C@H](CCC(=O)O)NC(=O)[C@H](CO)NC(=O)[C@@H](NC(=O)[C@@H](N)CO)C(C)C)[C@@H](C)CC)C(C)C)[C@@H](C)CC)[C@@H](C)CC)[C@@H](C)O)C(=O)O` [PTH(1-26)/PTHrP(27-36), hPTH(1-26)/PTHrP(27-36)] (H-SVSEIQLMHNLGKHLNSMERVEWLRKLIAEIHTAEI-OH) are 1.07 nM, 7.9 nM, 0.31 nM and “weaker calcemic actions than did either PTH(1-34) or PTHrP(1-36) control peptides”.
In the case of `CC[C@H](C)[C@H](NC(=O)[C@H](CCC(=O)O)NC(=O)[C@H](C)NC(=O)[C@@H](NC(=O)[C@H](C)N)C(C)C)C(=O)N[C@@H](CCC(N)=O)C(=O)N[C@@H](CC(C)C)C(=O)N[C@@H](CCSC)C(=O)N[C@@H](Cc1c[nH]cn1)C(=O)N[C@@H](CCC(N)=O)C(=O)N[C@@H](CCCNC(=N)N)C(=O)NCC(=O)N[C@@H](CCCCN)C(=O)N[C@@H](Cc1c[nH]cn1)C(=O)N[C@@H](CC(C)C)C(=O)N[C@@H](CC(N)=O)C(=O)N[C@@H](CO)C(=O)N[C@@H](CCSC)C(=O)N[C@@H](CCC(=O)O)C(=O)N[C@@H](CCCNC(=N)N)C(=O)N[C@H](C(=O)N[C@@H](CCC(=O)O)C(=O)N[C@@H](C)C(=O)N[C@@H](CC(C)C)C(=O)N[C@@H](CCCNC(=N)N)C(=O)N[C@@H](CCCCN)C(=O)N[C@@H](CCCCN)C(=O)N[C@@H](CC(C)C)C(=O)N[C@@H](CCC(N)=O)C(=O)N[C@@H](CC(=O)O)C(=O)N[C@H](C(=O)N[C@@H](Cc1c[nH]cn1)C(=O)N[C@@H](CC(N)=O)C(=O)N[C@@H](Cc1ccccc1)C(=O)O)C(C)C)C(C)C` [[A1,3,23,Q10,R11]-PTH(1-34)OH, [A^1,A^3,A^23,Q^10,R^11]-PTH(1-34)OH], the “cAMP in HKRK-B7 cells Max” value on human PTH1 receptor worked out at 63.8 pm/well.
As for `CC[C@H](C)[C@H](NC(=O)[C@H](CCC(=O)O)NC(=O)[C@H](C)NC(=O)[C@@H](NC(=O)[C@H](C)N)C(C)C)C(=O)N[C@@H](CCC(N)=O)C(=O)N[C@@H](CC(C)C)C(=O)N[C@@H](CCSC)C(=O)N[C@@H](Cc1c[nH]cn1)C(=O)N[C@@H](CC(N)=O)C(=O)N[C@@H](CC(C)C)C(=O)NCC(=O)N[C@@H](CCCCN)C(=O)N[C@@H](Cc1c[nH]cn1)C(=O)N[C@@H](CC(C)C)C(=O)N[C@@H](CC(N)=O)C(=O)N[C@@H](CO)C(=O)N[C@@H](CCSC)C(=O)N[C@@H](CCC(=O)O)C(=O)N[C@@H](CCCNC(=N)N)C(=O)N[C@H](C(=O)N[C@@H](CCC(=O)O)C(=O)N[C@@H](C)C(=O)N[C@@H](CC(C)C)C(=O)N[C@@H](CCCNC(=N)N)C(=O)N[C@@H](CCCCN)C(=O)N[C@@H](CCCCN)C(=O)N[C@@H](CC(C)C)C(=O)N[C@@H](CCC(N)=O)C(=O)N[C@@H](CC(=O)O)C(=O)N[C@H](C(=O)N[C@@H](Cc1c[nH]cn1)C(=O)N[C@@H](CC(N)=O)C(=O)N[C@@H](Cc1ccccc1)C(=O)O)C(C)C)C(C)C` [[A1,3,23]-PTH(1-34)OH, [A^1,A^3,A^23]-PTH(1-34)OH] (H-AVAEIQLMHNLGKHLNSMERVEALRKKLQDVHNF-OH; N-terminus assumed), the “cAMP in HKRK-B7 cells Max” value at human PTH1 receptor was determined as 66.6 pm/well. For the same compound, the R0/RG ratio in assay [4] is 4291.
